The results in this text go back to patent US10752900B2, “Oligonucleotides for modulating gene expression and uses thereof” (BIOGENERA S.P.A., priority 2012, dated 2020).

The subject of series [1] is MYCN gene. As to the kind of experiment: QT-PCR, MYCN mRNA in Kelly cells. The format is cell-based, human. As to conditions: for mRNA inhibition (%): Table 1, PNA 1 μM, RNA extracted after 24 hours; for mRNA inhibit. (%): Table 11, MYCN, 2.5 μM. The method, then:
(§1) For the purpose of assessing the ability of the oligonucleotides of the present invention to modulate the expression of the target genes, their ability to reduce the quantity of messenger RNA was analyzed using the Real-Time PCR technique.
(§2) For this purpose, use was made of 24-well plates, which were seeded with 5.0×10^4 cells with 0.3 ml of OPTI-MEM (GIBCO BRL) medium, 4% FBS and 2 mM L-glutammine (experiments in triplicate) per well.
(§3) The cells were incubated for 24 hours at 37° C., in an atmosphere containing 5% CO2 to permit adherence to the base of the wells.
Each oligonucleotide analyzed, except for the PNA oligonucleotides, was incubated beforehand with 2 μl of Lipofectamine 2000 (Invitrogen), with 0.3 mL of serum-free OPTI-MEM (GIBCO BRL) medium.
(§4) For each well, the oligonucleotides were analyzed at the following final concentrations: • the antisense oligonucleotides siRNA and siRNA gapmer (i.e. the oligonucleotides containing one or more monomers of chemically modified nucleic acids at the 3′ or 5′ end, while in the central portion they have monomers of nucleic acids that have not been modified or have been modified at the level of the phosphodiester bond as a phosphorothioate bond) were used at 200 nM; • the antisense oligonucleotides containing phosphorothioate DNA monomers, the RNA antigene oligonucleotides (agRNA) and the oligonucleotides containing DNA monomers and LNA monomers were used at 10 μM; • the morpholino oligonucleotides were used at a concentration of 1 μM, and • the PNA oligonucleotides were administered at a concentration of 1 μM.
(§5) The cells were treated with the oligonucleotides, adding FBS up to 4% 6 hours after administration of the same. After 24 hours the total RNA was extracted from each well and purified using the RNeasy Mini Kit (QIAGEN).
(§6) Assays were performed on 8 cell lines obtained from 5 different human tumours which are correlated with MYCN expression, i.e.: • as a neuroblastoma model use was made of the cell lines Kelly, IMR-32 (where the MYCN gene is amplified and superexpressed) and SKNBE2c and LAN1 (where the MYCN gene is amplified and superexpressed and the p53 gene is mutated); • as a rabdomiosarcoma model use was made of the cell line RH30, where the MYCN gene is amplified and superexpressed; • as a Wilms' tumour model use was made of the cell line WiT49, where the MYCN gene is amplified and superexpressed; • as a retinoblastoma model use was made of the cell line Y79, where the MYCN gene is amplified and superexpressed; and • as a model of small cell lung cancer use was made of the cell line H69 where the MYCN gene is amplified and superexpressed.
(§7) As a control, use was made of the same cell lines as listed above treated with sterile water instead of oligonucleotides. Each RNA sample was quantified (in duplicate) using a NanoDrop ND-1000 spectrophotometer (NanoDrop Technologies). The first strand of cDNA was produced using the cDNA Synthesis Kit for RT-PCR (Roche). For the cDNA synthesis reaction a total of 1 μg of RNA was used. For the real-time PCR, 10 ng of cDNA in a final volume of 20 μl was used with SYBR Green Master Mix 2× (Applied Biosystems) (3 identical experiments were conducted in triplicate). Two housekeeping genes were used as positive controls: GAPDH and beta-actin (ACTB).
(§8) The conditions of the QT-PCR reaction were: 10 min at 95° C., 20 sec at 95° C., and 30 sec at 60° C., for 50 cycles.
(§9) As far as the PNA oligonucleotides are concerned, the results regarding their ability to inhibit the transcription of the MYCN gene and proliferation of Kelly cells are shown in Table 1.
(§10) The oligonucleotides were tested in vitro (at a concentration of 2.5 μM) to determine their ability to inhibit the transcription of the gene they are directed against by measuring the levels of the gene messenger in cellular models in which the gene of interest is overexpressed. The methods used are the ones described in example 1. […]

In a further series the test system is NIH-3T3. Description: Cellular proliferation, NIH-3T3 fibroblastoid-type cells. The format is cell-based. As to conditions: Table 1; cells that do not express MYCN. The method, then:
(§11) Cell viability was assessed by means of an ATP-Lite assay (Luminescence ATP Detection Assay System, PerkinElmer) and is reported as the ratio between the average signal of the treated wells compared to the average value of the wells of untreated control cells. The cells were processed following the instructions provided with the kit.
(§12) Moreover, the oligonucleotides having SEQ ID NO 1-23 were administered in lines of fibroblastoid-type cells (NIH-3T3 and Phoenix) and the results are shown in Table 1 (last two columns). […]

A further series concerns Kelly cells. As to the kind of experiment: Cellular proliferation assay (ATP-Lite), Kelly cells. The format is cell-based, human. The method, then:
(§13) For the purpose of assessing the gene modulation ability of the oligonucleotides of the present invention, the effect of their administration on cell viability was determined.
(§14) For this purpose 5×10^3 cells per well were seeded into 96-well cell culture plates (experiments conducted in triplicate) with 100 μl of OPTI-MEM (GIBCO BRL) medium containing 4% FBS and 2 mM of L-glutammine.
(§15) The PNA oligonucleotides were administered at different concentrations (1 μM-2.5 μM-5 μM-10 μM) in order to observe a dose-effect relationship.
As regards all the other oligonucleotides, the concentrations at which they administered are listed in the paragraph:
(§16) The viability of the treated cells was determined at 48, 72, 96 and 168 hours after treatment.
as §11
(§17) The assays were performed on the same cell lines used to determine the levels of the MYCN gene messenger and listed in the paragraph: Treatments with Oligonucleotides—QT-PCR.
as §9
(§18) The ability of the tested oligonucleotides to inhibit the messenger of the gene of interest was measured and the proliferative capacity of the cells following administration of the oligonucleotides was also assessed.

Another series has as its system Phoenix. Description: Cellular proliferation, Phoenix fibroblastoid-type cells. The conditions noted are these: Table 1; cells that do not express MYCN. The format is cell-based. The method, then:
as §11, §12

In a further series the test system is H69. As to the kind of experiment: Cellular proliferation assay (ATP-Lite), H69 cells. The class given is cell-based, human. As to conditions: Table 11, MYCN-directed PNA, 2.5 μM. The method, then: as §13, §14, §15, §16, §11, §17
(§19) The PNAs having SEQ ID NO: 1-12 were also tested on different cell lines which overexpress MYCN (Kelly, SKNBE2c, RH30, WiT49, WERI-Rb1 1 and H69). The results are shown in Table 6 and confirm the selectivity and specificity of the inhibition effect of the PNAs on the product of protein translation of the MYCN gene.
as §18

Series [2] deals with MYCN gene. As to the kind of experiment: QT-PCR, MYCN mRNA in H69 cells. The format is cell-based, human. The conditions noted are these: Table 11, MYCN, 2.5 μM. The method, then: as §1, §2, §3, §4, §5, §6, §7, §8, §19, §10
The mark [3] stands for this setting: Table 1, treated vs untreated control cells.
Setting [4] is: Table 11, MYCN-directed PNA, 2.5 μM.

Regarding “SEQ ID NO: 15: PNA antigene oligonucleotide ACTGTGTTGGAGCCGA directed against MYCN (all peptide nucleic acid (PNA))”, in the series with MYCN gene [1], the “mRNA inhibition (%)” value was 37%. For the same substance, the “NIH-3T3 prolif. (%)” value in the series on NIH-3T3 is recorded as 100%. The “Cell Prolif. (%)” value in the series with Kelly cells (setting [3]) stood at 77%. Besides, the “Phoenix prolif. (%)” value in the series on Phoenix is on record as 100%.
For “SEQ ID NO: 18: PNA GTGACAGTCATCTGTC without groups of consecutive guanines, negative control (PNA backbone, chemistry not fully specified) [reference compound]”, the “mRNA inhibition (%)” value with MYCN gene [1] came to 10%. Also, in the series with NIH-3T3, the “NIH-3T3 prolif. (%)” value is 100%. For the same substance, the “Cell Prolif. (%)” value with Kelly cells (setting [3]) is given as 98%. Also, in the series with Phoenix, the “Phoenix prolif. (%)” value is given as 100%.
As to “SEQ ID NO: 16: PNA CCTGTCGTAGACAGCT without groups of consecutive guanines, negative control (PNA backbone, chemistry not fully specified) [reference compound]”, the “mRNA inhibition (%)” value in the series on MYCN gene [1] was found to be 14%. In the series with NIH-3T3, the “NIH-3T3 prolif. (%)” value was 100%. In addition, in the series on Kelly cells (setting [3]), the “Cell Prolif. (%)” value is 90%. Further, the “Phoenix prolif. (%)” value with Phoenix is recorded as 100%.
As for “SEQ ID NO: 69: PNA TCGGCGGGAGGTAAGG directed against MYCN (all peptide nucleic acid (PNA); antigene PNA)”, the “Cell Prolif. (%)” value in the series on H69 is 45%; in the series on Kelly cells (setting [4]), 30%. Also, the “mRNA inhibit. (%)” value came to 76% in the series on MYCN gene [1] and 67% in the series with MYCN gene [2].
The corresponding values for “SEQ ID NO: 67: PNA GCGGGTCGCGGGCACG directed against MYCN (all peptide nucleic acid (PNA); antigene PNA)” are 71%, 56%, 60% and 42%.
Consider “SEQ ID NO: 14: PNA antigene oligonucleotide CCCGGACGAAGATGAC directed against MYCN (all peptide nucleic acid (PNA))”, for which, in the series with MYCN gene [1], the “mRNA inhibition (%)” value is recorded as 40%. Moreover, in the series with NIH-3T3, the “NIH-3T3 prolif. (%)” value was 100%. Besides, the “Cell Prolif. (%)” value in the series with Kelly cells (setting [3]) is 70%. In addition, in the series on Phoenix, the “Phoenix prolif. (%)” value turned out to be 100%.
In the case of “SEQ ID NO: 13: PNA antigene oligonucleotide ACGCTCAGGGACCACG directed against MYCN (all peptide nucleic acid (PNA))”, the “mRNA inhibition (%)” value in the series with MYCN gene [1] came to 48%. Also, the “NIH-3T3 prolif. (%)” value with NIH-3T3 came out at 100%. The “Cell Prolif. (%)” value in the series with Kelly cells (setting [3]) turned out to be 66%. The “Phoenix prolif. (%)” value in the series on Phoenix is given as 100%.
Regarding “SEQ ID NO: 20: PNA CGTCGATTTCTTCCTC without groups of consecutive guanines, negative control (PNA backbone, chemistry not fully specified) [reference compound]”, the “mRNA inhibition (%)” value in the series on MYCN gene [1] is given as 5%. The “NIH-3T3 prolif. (%)” value in the series on NIH-3T3 amounted to 100%. In the series with Kelly cells (setting [3]), the “Cell Prolif. (%)” value was determined as 100%. Besides, the “Phoenix prolif. (%)” value with Phoenix is listed as 100%.
Regarding “SEQ ID NO: 23: PNA ATATCCCCCGAGCTTC without groups of consecutive guanines, negative control (PNA backbone, chemistry not fully specified) [reference compound]”, the “mRNA inhibition (%)” value in the series with MYCN gene [1] came to 2%. For the same substance, in the series on NIH-3T3, the “NIH-3T3 prolif. (%)” value came out at 100%. Further, in the series on Kelly cells (setting [3]), the “Cell Prolif. (%)” value is recorded as 100%. The “Phoenix prolif. (%)” value with Phoenix is on record as 100%.
Take “SEQ ID NO: 22: PNA GCGCCTCCCCTGATTT without groups of consecutive guanines, negative control (PNA backbone, chemistry not fully specified) [reference compound]”: in the series with MYCN gene [1], the “mRNA inhibition (%)” value is given as 2%. Moreover, in the series on NIH-3T3, the “NIH-3T3 prolif. (%)” value was determined as 100%. Also, the “Cell Prolif. (%)” value with Kelly cells (setting [3]) was determined as 100%. Moreover, in the series on Phoenix, the “Phoenix prolif. (%)” value came to 100%.
As to “SEQ ID NO: 68: PNA TGGAGGTCGGCGCCGG directed against MYCN (all peptide nucleic acid (PNA); antigene PNA)”, the “Cell Prolif. (%)” value with H69 was found to be 49%; with Kelly cells (setting [4]), 35%. Further, the “mRNA inhibit. (%)” value with MYCN gene [1] was found to be 74%; in the series on MYCN gene [2], 62%.
Regarding “SEQ ID NO: 17: PNA TGTGACAGTCATCTGT without groups of consecutive guanines, negative control (PNA backbone, chemistry not fully specified) [reference compound]”, the “mRNA inhibition (%)” value in the series on MYCN gene [1] turned out to be 10%. For the same substance, the “NIH-3T3 prolif. (%)” value in the series on NIH-3T3 was 100%. In the series on Kelly cells (setting [3]), the “Cell Prolif. (%)” value is reported as 98%. Also, the “Phoenix prolif. (%)” value in the series with Phoenix worked out at 100%.
Take “SEQ ID NO: 21: PNA CTCGAGTTTGACTCGC without groups of consecutive guanines, negative control (PNA backbone, chemistry not fully specified) [reference compound]”: the “mRNA inhibition (%)” value with MYCN gene [1] is on record as 1%. Besides, the “NIH-3T3 prolif. (%)” value with NIH-3T3 is recorded as 100%. In addition, the “Cell Prolif. (%)” value with Kelly cells (setting [3]) came out at 100%. Moreover, the “Phoenix prolif. (%)” value in the series with Phoenix is given as 100%.
In the case of “SEQ ID NO: 66: PNA TCGGGAGCAGTGGGCA directed against MYCN (all peptide nucleic acid (PNA); antigene PNA, further chemistry not fully specified)”, the “Cell Prolif. (%)” value with H69 is 73%; in the series on Kelly cells (setting [4]) it was 60%. Further, the “mRNA inhibit. (%)” value in the series with MYCN gene [1] was determined as 57%; in the series on MYCN gene [2] it was 41%.
Take “SEQ ID NO: 19: PNA GACAGTCATCTGTCTG without groups of consecutive guanines, negative control (PNA backbone, chemistry not fully specified) [reference compound]”: the “mRNA inhibition (%)” value with MYCN gene [1] worked out at 5%. Besides, the “NIH-3T3 prolif. (%)” value in the series with NIH-3T3 was 100%. Moreover, the “Cell Prolif. (%)” value in the series on Kelly cells (setting [3]) was 100%. Also, the “Phoenix prolif. (%)” value with Phoenix is 100%.
